Measured values as given in PubChem BioAssay (NCI).
“And” between values parts separate entries of the source, which are not always exact repeats. Equal values may be shown once.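 96-well plates; 48 h exposure; 5 concentrations. Endpoints by linear interpolation between flanking doses. Not reached: highest tested concentration assigned. GI50 is the concentration that inhibits growth by half. The concentration for full growth arrest is given as TGI.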

Experiments:
Experiment in all cases: NCI tumour cell line growth inhibition, 48 h; in the data active = GI50 below about 0.43 µM; inactive = the rest
HCC-2998 colon = test system: HCC-2998 colon
PC-3 prostate = test system: PC-3 prostate
ACHN renal = test system: ACHN renal
OVCAR-4 ovarian = test system: OVCAR-4 ovarian
MOLT-4 leukemia = test system: MOLT-4 leukemia
SN12C renal = test system: SN12C renal
786-0 renal = test system: 786-0 renal
SK-MEL-28 melanoma = test system: SK-MEL-28 melanoma
U251 CNS = test system: U251 CNS
NCI-H226 lung = test system: NCI-H226 lung

CCCCCc1c(C)[nH]c(/C=C2\N=C(c3ccc[nH]3)C=C2Oc2ccc(Cl)cc2)c1C
0.326 µM and 0.512 µM: TGI (786-0 renal)
0.749 µM and 0.192 µM: TGI (U251 CNS)
7.22 µM: TGI (PC-3 prostate)
1.22 µM and 2.11 µM: TGI (ACHN renal)
active: GI50 (HCC-2998 colon) 0.0439 µM and 0.0241 µM | GI50 (PC-3 prostate) 0.115 µM and 0.0236 µM | GI50 (ACHN renal) 0.196 µM and 0.0397 µM | GI50 (OVCAR-4 ovarian) 0.0527 µM and 0.0228 µM | GI50 (MOLT-4 leukemia) 0.064 µM | GI50 (SN12C renal) 0.112 µM and 0.0549 µM | GI50 (786-0 renal) 0.0763 µM and 0.0461 µM | GI50 (SK-MEL-28 melanoma) 0.169 µM and 0.0742 µM | GI50 (U251 CNS) 0.0658 µM and 0.019 µM
1.92 µM: TGI (SN12C renal)
1.88 µM: TGI (MOLT-4 leukemia)
> 100 µM: TGI (OVCAR-4 ovarian)
2.67 µM and 7.35 µM: TGI (HCC-2998 colon)
1.53 µM and 0.943 µM: TGI (SK-MEL-28 melanoma)

CSc1nc(-c2ccccc2)c2c(n1)-c1ccccc1CC2
> 100 µM: TGI (OVCAR-4 ovarian) | TGI (MOLT-4 leukemia) | TGI (SN12C renal) | TGI (NCI-H226 lung) | TGI (786-0 renal) | TGI (SK-MEL-28 melanoma) | TGI (U251 CNS)

O=C(O)c1c[nH]cc1C(=O)O
> 100 µM: TGI (OVCAR-4 ovarian) | TGI (MOLT-4 leukemia) | TGI (SN12C renal) | TGI (NCI-H226 lung) | TGI (786-0 renal) | TGI (U251 CNS)

CN(C)c1ccc(C(N)=O)cn1
> 100 µM: TGI (HCC-2998 colon) | TGI (PC-3 prostate) | TGI (ACHN renal) | TGI (MOLT-4 leukemia) | TGI (SN12C renal) | TGI (786-0 renal) | TGI (SK-MEL-28 melanoma) | TGI (U251 CNS)

N#Cc1ccccc1NC(=O)c1ccccc1
> 100 µM: TGI (ACHN renal) | TGI (OVCAR-4 ovarian) | TGI (SN12C renal) | TGI (786-0 renal) | TGI (SK-MEL-28 melanoma) | TGI (U251 CNS)

Clc1ccc(CN2COc3c(cc(Cl)c4cccnc34)C2)cc1
9.41 µM: TGI (786-0 renal)
8.26 µM: TGI (OVCAR-4 ovarian)
12 µM: TGI (HCC-2998 colon)
7.38 µM: TGI (SK-MEL-28 melanoma)
8.74 µM: TGI (ACHN renal)
15.6 µM: TGI (SN12C renal)
8.67 µM: TGI (NCI-H226 lung)
5.02 µM: TGI (MOLT-4 leukemia)
6.45 µM: TGI (U251 CNS)

C=C(C)[C@@H]1CC[C@@]2(C)[C@H]1[C@H]1CCC3[C@@]4(C)CC[C@H](O)C(C)(C)[C@@H]4CC[C@@]3(C)[C@]1(C)C[C@@H]2O (stereo partly drawn)
> 100 µM: TGI (PC-3 prostate) | TGI (ACHN renal) | TGI (MOLT-4 leukemia) | TGI (SN12C renal) | TGI (NCI-H226 lung) | TGI (786-0 renal) | TGI (SK-MEL-28 melanoma) | TGI (U251 CNS)

C/C1=C\CC[C@@](C)(O)[C@@H]2CC3[C@@H](OC(=O)C34CC4)[C@@H](O2)[C@H](C)CCC1 (stereo partly drawn)
44.6 µM: TGI (PC-3 prostate)
35.1 µM: TGI (ACHN renal)
> 100 µM: TGI (OVCAR-4 ovarian) | TGI (MOLT-4 leukemia) | TGI (SK-MEL-28 melanoma)
inactive: GI50 (HCC-2998 colon) 14.7 µM | GI50 (PC-3 prostate) 20.1 µM | GI50 (ACHN renal) 16.9 µM | GI50 (OVCAR-4 ovarian) 38 µM | GI50 (MOLT-4 leukemia) 39.2 µM | GI50 (SN12C renal) 20.3 µM | GI50 (786-0 renal) 16.2 µM | GI50 (SK-MEL-28 melanoma) 61.7 µM | GI50 (U251 CNS) 19.9 µM
29.8 µM: TGI (786-0 renal)
27.8 µM: TGI (HCC-2998 colon)
42.7 µM: TGI (U251 CNS)
43.5 µM: TGI (SN12C renal)

CC(C)[C@@H](COC(C)(C)C)N=CN1CCc2c([nH]c3ccccc23)C1
> 100 µM: TGI (HCC-2998 colon) | TGI (ACHN renal) | TGI (OVCAR-4 ovarian) | TGI (MOLT-4 leukemia) | TGI (SN12C renal) | TGI (NCI-H226 lung) | TGI (786-0 renal) | TGI (SK-MEL-28 melanoma) | TGI (U251 CNS)

CCOc1ccc(NC(=O)CC2SC(N)=NC2=O)cc1 (stereo not drawn)
> 100 µM: TGI (HCC-2998 colon) | TGI (ACHN renal) | TGI (OVCAR-4 ovarian) | TGI (MOLT-4 leukemia) | TGI (SN12C renal) | TGI (NCI-H226 lung) | TGI (786-0 renal) | TGI (SK-MEL-28 melanoma) | TGI (U251 CNS)

N#CC1C(N)=NNC12Nc1ccccc1N2 (stereo not drawn)
92.3 µM: TGI (OVCAR-4 ovarian)
inactive: GI50 (HCC-2998 colon) 31.9 µM | GI50 (PC-3 prostate) 22.2 µM | GI50 (ACHN renal) 34.9 µM | GI50 (OVCAR-4 ovarian) 18 µM | GI50 (786-0 renal) 45 µM | GI50 (SK-MEL-28 melanoma) 27.9 µM | GI50 (U251 CNS) 22.6 µM
> 100 µM: TGI (HCC-2998 colon) | TGI (PC-3 prostate) | TGI (ACHN renal) | TGI (786-0 renal) | TGI (SK-MEL-28 melanoma) | TGI (U251 CNS)

CCO[C@@H]1C2C=CC(C2)[C@H]1[N+](=O)[O-] (stereo partly drawn)
> 100 µM: TGI (HCC-2998 colon) | TGI (ACHN renal) | TGI (OVCAR-4 ovarian) | TGI (MOLT-4 leukemia) | TGI (SN12C renal) | TGI (NCI-H226 lung) | TGI (786-0 renal) | TGI (SK-MEL-28 melanoma) | TGI (U251 CNS)

CCOC(=O)/C(C#N)=C1\N[C@H](C(=O)OCC)CO1
> 100 µM: TGI (HCC-2998 colon) | TGI (ACHN renal) | TGI (OVCAR-4 ovarian) | TGI (MOLT-4 leukemia) | TGI (SN12C renal) | TGI (NCI-H226 lung) | TGI (786-0 renal) | TGI (SK-MEL-28 melanoma) | TGI (U251 CNS)

COC(=O)C(Cc1nc2ccc(Cl)cc2[nH]c1=O)C(=O)C(=O)Nc1ccccc1[N+](=O)[O-] (stereo not drawn)
> 100 µM: TGI (HCC-2998 colon) | TGI (ACHN renal) | TGI (OVCAR-4 ovarian) | TGI (MOLT-4 leukemia) | TGI (SN12C renal) | TGI (NCI-H226 lung) | TGI (786-0 renal) | TGI (SK-MEL-28 melanoma) | TGI (U251 CNS)

COc1ccc2cc3n(c2c1)CCc1cc(OC)c(OC)cc1-3
> 100 µM: TGI (HCC-2998 colon) | TGI (ACHN renal) | TGI (OVCAR-4 ovarian) | TGI (MOLT-4 leukemia) | TGI (SN12C renal) | TGI (NCI-H226 lung) | TGI (786-0 renal) | TGI (SK-MEL-28 melanoma) | TGI (U251 CNS)

CC1CC2(CC[C@@H]1O)OCCO2 (stereo partly drawn)
> 100 µM: TGI (HCC-2998 colon) | TGI (OVCAR-4 ovarian) | TGI (MOLT-4 leukemia) | TGI (SN12C renal) | TGI (786-0 renal) | TGI (U251 CNS)

CC1=CC(=O)C(C(C)=Nc2ccccc2Cl)C(=O)O1 (stereo not drawn)
> 100 µM: TGI (HCC-2998 colon) | TGI (PC-3 prostate) | TGI (ACHN renal) | TGI (MOLT-4 leukemia) | TGI (SN12C renal) | TGI (NCI-H226 lung) | TGI (786-0 renal) | TGI (SK-MEL-28 melanoma) | TGI (U251 CNS)
inactive: GI50 (HCC-2998 colon) > 100 µM | GI50 (PC-3 prostate) > 100 µM | GI50 (ACHN renal) > 100 µM | GI50 (MOLT-4 leukemia) > 100 µM | GI50 (SN12C renal) > 100 µM | GI50 (NCI-H226 lung) > 100 µM | GI50 (786-0 renal) > 100 µM | GI50 (SK-MEL-28 melanoma) > 100 µM | GI50 (U251 CNS) > 100 µM

O=C(O)CCC1CCc2cccc3occ1c23 (stereo not drawn)
> 100 µM: TGI (HCC-2998 colon) | TGI (ACHN renal) | TGI (OVCAR-4 ovarian) | TGI (MOLT-4 leukemia) | TGI (SN12C renal) | TGI (NCI-H226 lung) | TGI (786-0 renal) | TGI (SK-MEL-28 melanoma) | TGI (U251 CNS)

CC[CH2][Pb]([CH2]CC)([CH2]CC)[NH]S(=O)(=O)c1ccc(C)cc1
4.51 µM: TGI (MOLT-4 leukemia)
0.241 µM: TGI (SK-MEL-28 melanoma)
0.172 µM: TGI (SN12C renal)
0.307 µM: TGI (OVCAR-4 ovarian)
0.196 µM: TGI (PC-3 prostate)
0.134 µM: TGI (786-0 renal)
0.292 µM: TGI (U251 CNS)
active: GI50 (HCC-2998 colon) 0.0727 µM | GI50 (PC-3 prostate) 0.0701 µM | GI50 (ACHN renal) 0.0668 µM | GI50 (OVCAR-4 ovarian) 0.0682 µM | GI50 (MOLT-4 leukemia) 0.0746 µM | GI50 (SN12C renal) 0.0681 µM | GI50 (786-0 renal) 0.0574 µM | GI50 (SK-MEL-28 melanoma) 0.0764 µM | GI50 (U251 CNS) 0.089 µM
0.2 µM: TGI (HCC-2998 colon) | TGI (ACHN renal)

Cc1cccc(C(C)(C)C)c1NC(=O)C(=O)C(c1cnc2ccccc2n1)[N+](=O)[O-] (stereo not drawn)
> 100 µM: TGI (HCC-2998 colon) | TGI (ACHN renal) | TGI (OVCAR-4 ovarian) | TGI (MOLT-4 leukemia) | TGI (SN12C renal) | TGI (NCI-H226 lung) | TGI (786-0 renal) | TGI (SK-MEL-28 melanoma) | TGI (U251 CNS)
